Experimental data reported in patent US7223788B2, “Substituted N-aryl heterocycles, process for their preparation and their use as medicaments” (Sanofi-Aventis Deutschland GmbH, priority 2003, dated 2007).

System: female NMRI mice
Assay: Anorectic effect: reduction in cumulative milk consumption after oral administration (gavage) to fasted mice
Format: in vivo
Settings: oral dose 30 mg/kg by gavage, after withdrawal of food for 17 hours, condensed milk consumption over 7 hours, compared with vehicle-treated control
Procedure: The anorectic effect was tested on female NMRI mice. After withdrawal of food for 17 hours, the test product was administered by gavage. The animals were housed singly with free access to drinking water and were offered condensed milk 30 minutes after administration of the product. The condensed milk consumption was determined every half hour for 7 hours, and the general wellbeing of the animals was observed. The measured milk consumption was compared with the vehicle-treated control animals.

SMILES | Reduction in the cumulative milk consumption as % of the control
CC(=O)N(C)[C@@H]1CCN(c2ccc(NC(=O)Nc3ccc(Oc4ccccc4)cc3)cc2)C1 [Example 4, (R)-N-Methyl-N-(1-{4-[3-(4-phenoxyphenyl)ureido]phenyl}pyrrolidin-3-yl)acetamide] | 50%
CC(=O)N(C)C1CCN(c2ccc(NC(=O)N3CCC(c4ccc(Cl)cc4)CC3)cc2)C1 (centres unmarked) [Example 13, 4-(4-Chlorophenyl)piperidine-1-carboxylic acid {4-[3-(acetylmethylamino)-pyrrolidin-1-yl]phenyl}amide] | 64%
